Data from patent US9029546B2, “Pyrazolopyridine kinase inhibitors” (Vertex Pharmaceuticals Incorporated, priority 2008, dated 2015).

Assays:
PKC theta kinase = PKC theta kinase (Homo sapiens, UniProt Q04759); assay: PKC theta coupled-enzyme kinase assay (NADH consumption); format: biochemical; conditions: 240 μM ATP, 30° C.
Procedure: (§1) An assay buffer solution was prepared which consisted of 100 mM HEPES (pH 7.5), 10 mM MgCl2, 25 mM NaCl, 0.1 mM EDTA and 0.01% Brij. An enzyme buffer containing reagents to final assay concentrations of 0.00001% Triton X-100, 200 μg/mL Phosphatidylserine, 20 μg/mL Diacylglycerol, 360 μM NADH, 3 mM phosphoenolpyruvate, 70 μg/mL pyruvate kinase, 24 μg/mL lactate dehydrogenase, 2 mM DTT, 100 μM substrate peptide (ERMRPRKRQGSVRRRV (SEQ ID NO: 1)) and 18 nM PKC theta kinase was prepared in assay buffer. To 60 μL of this enzyme buffer, in a 384 well plate, was added 2 μL of VRT stock solution in DMSO. The mixture was allowed to equilibrate for 10 mins at 30° C. The enzyme reaction was initiated by the addition of 5 μL stock ATP solution prepared in assay buffer to a final assay concentration of 240 μM. Initial rate data was determined from the rate of change of absorbance at 340 nm (corresponding to stoichiometric consumption of NADH) using a Molecular Devices Spectramax plate reader (Sunnyvale, Calif.) over 15 mins at 30° C. For each Ki determination 12 data points covering the VRT concentration range of 0-20 μM were obtained in duplicate (DMSO stocks were prepared from an initial 10 mM VRT stock with subsequent 1:2 serial dilutions). Ki values were calculated from initial rate data by non-linear regression using the Prism software package (Prism 4.0a, Graphpad Software, San Diego, Calif.).

PKC Delta = PKC Delta (Homo sapiens, UniProt Q05655); assay: PKC delta coupled-enzyme kinase assay (NADH consumption); format: biochemical; conditions: 240 μM ATP, 30° C.
Sequence of PKC Delta (Q05655 whole entry): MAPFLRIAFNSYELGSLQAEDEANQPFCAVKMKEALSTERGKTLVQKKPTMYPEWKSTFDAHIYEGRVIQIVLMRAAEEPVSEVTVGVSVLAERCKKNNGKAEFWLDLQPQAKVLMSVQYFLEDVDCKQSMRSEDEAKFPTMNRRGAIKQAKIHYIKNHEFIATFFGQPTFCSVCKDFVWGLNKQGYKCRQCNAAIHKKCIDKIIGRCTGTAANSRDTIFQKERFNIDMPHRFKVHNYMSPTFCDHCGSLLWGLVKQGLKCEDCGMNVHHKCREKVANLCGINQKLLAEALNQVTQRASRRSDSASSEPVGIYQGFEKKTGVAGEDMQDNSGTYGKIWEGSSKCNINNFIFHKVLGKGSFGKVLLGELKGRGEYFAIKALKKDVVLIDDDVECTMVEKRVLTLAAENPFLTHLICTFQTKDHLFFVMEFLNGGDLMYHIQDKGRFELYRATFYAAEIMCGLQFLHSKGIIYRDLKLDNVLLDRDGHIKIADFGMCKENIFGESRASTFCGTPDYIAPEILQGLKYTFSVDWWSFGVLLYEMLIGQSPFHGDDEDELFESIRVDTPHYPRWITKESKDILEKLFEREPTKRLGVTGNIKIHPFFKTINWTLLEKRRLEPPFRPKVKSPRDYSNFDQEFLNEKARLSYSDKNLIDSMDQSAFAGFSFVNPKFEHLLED
Procedure: [The source words this procedure for another target and reports this target under the same test.] as §1

Sequence of PKC theta kinase (Q04759 whole entry): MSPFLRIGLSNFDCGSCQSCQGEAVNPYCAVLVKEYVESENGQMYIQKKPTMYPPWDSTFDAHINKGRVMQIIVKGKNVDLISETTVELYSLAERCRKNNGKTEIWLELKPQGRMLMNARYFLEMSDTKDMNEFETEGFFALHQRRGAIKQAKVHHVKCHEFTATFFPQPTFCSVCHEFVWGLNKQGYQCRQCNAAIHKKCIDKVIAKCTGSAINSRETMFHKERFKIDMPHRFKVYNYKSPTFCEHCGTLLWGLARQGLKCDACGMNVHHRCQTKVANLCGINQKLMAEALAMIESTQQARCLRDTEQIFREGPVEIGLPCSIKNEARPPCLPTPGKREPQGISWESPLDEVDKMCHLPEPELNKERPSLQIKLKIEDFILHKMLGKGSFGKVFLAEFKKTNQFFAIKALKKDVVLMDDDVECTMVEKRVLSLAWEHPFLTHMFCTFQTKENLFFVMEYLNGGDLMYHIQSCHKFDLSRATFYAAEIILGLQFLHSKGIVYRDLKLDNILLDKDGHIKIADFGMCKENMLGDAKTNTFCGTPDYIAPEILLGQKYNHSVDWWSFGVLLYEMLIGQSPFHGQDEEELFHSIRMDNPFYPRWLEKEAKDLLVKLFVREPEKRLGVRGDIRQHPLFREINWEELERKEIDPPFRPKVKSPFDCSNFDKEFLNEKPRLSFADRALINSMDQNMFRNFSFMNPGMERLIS

Compound	Ki (PKC theta kinase) [nM]	Ki (PKC Delta) [nM]
NC1CCCCC1Nc1cccc(-c2n[nH]c3ncccc23)n1 (stereo not shown) [Compound 3]	< 500	< 500
OC[C@H](Nc1ccc(C(F)(F)F)c(-c2n[nH]c3ncccc23)n1)c1ccccc1 [Compound 79]	< 500	< 500
CC(C)C[C@H](N)CNc1cccc(-c2n[nH]c3ncccc23)n1 [Compound 16]	< 500	< 500
OCCN(CCO)c1ccc(C(F)(F)F)c(-c2n[nH]c3ncccc23)n1 [Compound 76]	> 700	> 700
OC[C@H](Cc1ccccc1)Nc1ccc(C(F)(F)F)c(-c2n[nH]c3ncccc23)n1 [Compound 77]	> 700	> 700
FC(F)(F)c1ccc(OC[C@@H]2CCCN2)nc1-c1n[nH]c2ncccc12 [Compound 51]	> 700	> 700
OCCNc1ccc(C(F)(F)F)c(-c2n[nH]c3ncccc23)n1 [Compound 82]	> 700	> 700
OC1(CNc2ccc(C(F)(F)F)c(-c3n[nH]c4ncccc34)n2)CCCCC1 [Compound 47]	< 500	< 500
CC(C)(C)[C@H](N)COc1ccc(C(F)(F)F)c(-c2n[nH]c3ncccc23)n1 [Compound 72]	> 700	> 700
CC(C)C[C@H](N)COc1ccc(C(F)(F)F)c(-c2n[nH]c3ncccc23)n1 [Compound 38]	< 500	< 500
c1cc(NCC2CCCN2)nc(-c2n[nH]c3ncccc23)c1 (stereo not shown) [Compound 20]	> 700	> 700
NC1CCC(CNc2ccc(C(F)(F)F)c(-c3n[nH]c4ncccc34)n2)CC1 (stereo not shown) [Compound 25, N-((4-aminocyclohexyl)methyl)-6-(1H-pyrazolo[3,4-b]pyridin-3-yl)-5-(trifluoromethyl)pyridin-2-amine]	< 500	< 500
c1cc(NCC2CCNC2)nc(-c2n[nH]c3ncccc23)c1 (stereo not shown) [Compound 22]	< 500	< 500
FC(F)(F)c1ccc(NCC2CCNC2)nc1-c1n[nH]c2ncccc12 (stereo not shown) [Compound 29]	> 700	> 700
CN(C)C(C)(C)COc1ccc(C(F)(F)F)c(-c2n[nH]c3ncccc23)n1 [Compound 52]	> 700	> 700
CC(C)CC1(CNc2ccc(F)c(-c3n[nH]c4ncccc34)n2)CNC1 [Compound 68]	< 50	< 50
Fc1ccc(NC2CNC2)nc1-c1n[nH]c2ncccc12 [Compound 64]	> 700	> 700
FC(F)(F)c1ccc(OCCC2CCCCN2)nc1-c1n[nH]c2ncccc12 (stereo not shown) [Compound 43]	> 700	> 700
CC[C@H](CO)Nc1ccc(C(F)(F)F)c(-c2n[nH]c3ncccc23)n1 [Compound 86]	> 700	> 700
N#CCCNc1ccc(C(F)(F)F)c(-c2n[nH]c3ncccc23)n1 [Compound 42]	> 700	> 700
Nc1cc(Cl)cc(Nc2ccc(C(F)(F)F)c(-c3n[nH]c4ncccc34)n2)c1 [Compound 70]	< 500	< 500

Compound	Ki (PKC theta kinase) [nM]	Ki (PKC Delta) [nM]
CC(C)CC1(CNc2ccc(C(F)(F)F)c(-c3n[nH]c4ncccc34)n2)CNC1 [Compound 67]	< 50	< 50
CNCCN(C)c1cccc(-c2n[nH]c3ncccc23)n1 [Compound 5]	< 2800	< 2800
NC1CCC(CNc2cccc(-c3n[nH]c4ncccc34)n2)CC1 (stereo not shown) [Compound 13, N-((4-aminocyclohexyl)methyl)-6-(1H-pyrazolo[3,4-b]pyridin-3-yl)pyridin-2-amine]	< 500	< 500
CC(O)CNc1ccc(C(F)(F)F)c(-c2n[nH]c3ncccc23)n1 (stereo not shown) [Compound 53]	> 700	> 700
c1cc(NC2CCNCC2)nc(-c2n[nH]c3ncccc23)c1 [Compound 18]	< 50	< 50
NC1CCC(Oc2ccc(C(F)(F)F)c(-c3n[nH]c4ncccc34)n2)CC1 (stereo not shown) [Compound 59]	> 700	> 700
NC(COc1ccc(C(F)(F)F)c(-c2n[nH]c3ncccc23)n1)c1ccccc1 (stereo not shown) [Compound 37]	< 500	< 500
FC(F)(F)c1ccc(NCC2CCCN2)nc1-c1n[nH]c2ncccc12 (stereo not shown) [Compound 28]	> 700	> 700
FC(F)(F)c1ccc(OCC2CCCNC2)nc1-c1n[nH]c2ncccc12 (stereo not shown) [Compound 46]	> 700	> 700
O[C@H](CNc1ccc(C(F)(F)F)c(-c2n[nH]c3ncccc23)n1)c1ccccc1 [Compound 19]	< 500	< 500
CCN1CCCC(Oc2ccc(C(F)(F)F)c(-c3n[nH]c4ncccc34)n2)C1 (stereo not shown) [Compound 69]	> 700	> 700
CC(N)(CO)COc1ccc(C(F)(F)F)c(-c2n[nH]c3ncccc23)n1 (stereo not shown) [Compound 57]	> 700	> 700
OCc1cccc(Nc2ccc(C(F)(F)F)c(-c3n[nH]c4ncccc34)n2)c1 [Compound 78]	> 700	> 700
CC(C)(CN)CNc1cccc(-c2n[nH]c3ncccc23)n1 [Compound 10]	< 500	< 500
CC(C)CC(O)CNc1cccc(-c2n[nH]c3ncccc23)n1 (stereo not shown) [Compound 21]	> 700	> 700
O[C@H](CNc1cccc(-c2n[nH]c3ncccc23)n1)c1ccccc1 [Compound 7]	> 700	> 700
NC(CNc1ccc(C(F)(F)F)c(-c2n[nH]c3ncccc23)n1)c1ccccc1 (stereo not shown) [Compound 36]	< 50	< 50
NCCCNc1cccc(-c2n[nH]c3ncccc23)n1 [Compound 2]	< 500	< 500
O[C@H]1CC[C@H](Nc2ccc(C(F)(F)F)c(-c3n[nH]c4ncccc34)n2)CC1 [Compound 81]	> 700	> 700
NCc1ccc(Nc2ccc(C(F)(F)F)c(-c3n[nH]c4ncccc34)n2)cc1 [Compound 48]	> 700	> 700
CC(CO)Nc1ccc(C(F)(F)F)c(-c2n[nH]c3ncccc23)n1 (stereo not shown) [Compound 73]	> 700	> 700

Compound	Ki (PKC theta kinase) [nM]	Ki (PKC Delta) [nM]
CN1CCCC(COc2ccc(C(F)(F)F)c(-c3n[nH]c4ncccc34)n2)C1 (stereo not shown) [Compound 55]	> 700	> 700
N#CCNc1ccc(C(F)(F)F)c(-c2n[nH]c3ncccc23)n1 [Compound 62]	> 700	> 700
CC(C)C[C@@H](N)COc1ccc(C(F)(F)F)c(-c2n[nH]c3ncccc23)n1 [Compound 39]	> 700	> 700
CCC(O)CNc1ccc(C(F)(F)F)c(-c2n[nH]c3ncccc23)n1 (stereo not shown) [Compound 83]	> 700	> 700
FC(F)(F)c1ccc(NCC2CCNCC2)nc1-c1n[nH]c2ncccc12 [Compound 27]	> 700	> 700
NC1CCCC(Nc2ccc(C(F)(F)F)c(-c3n[nH]c4ncccc34)n2)C1 (stereo not shown) [Compound 30]	< 500	< 500
CCC(CN)(CNc1ccc(C(F)(F)F)c(-c2n[nH]c3ncccc23)n1)c1ccccc1 (stereo not shown) [Compound 65]	< 500	< 500
NC(=O)c1ccsc1Nc1ccc(C(F)(F)F)c(-c2n[nH]c3ncccc23)n1 [Compound 50]	> 700	> 700
OC1CCCCC1Nc1ccc(C(F)(F)F)c(-c2n[nH]c3ncccc23)n1 (stereo not shown) [Compound 84]	> 700	> 700
CC(C)(N)CNc1cccc(-c2n[nH]c3ncccc23)n1 [Compound 1, N1-(6-(1H-pyrazolo[3,4-b]pyridin-3-yl)pyridin-2-yl)-2-methylpropane-1,2-diamine]	< 50	< 50
FC(F)(F)c1ccc(NC2CN3CCC2CC3)nc1-c1n[nH]c2ncccc12 (stereo not shown) [Compound 71]	> 700	> 700
CC(C)(CN)CNc1ccc(C(F)(F)F)c(-c2n[nH]c3ncccc23)n1 [Compound 33]	< 500	< 500
NCC1CCC(CNc2ccc(C(F)(F)F)c(-c3n[nH]c4ncccc34)n2)CC1 (stereo not shown) [Compound 24]	< 500	< 500
CC(C)C[C@@H](CN)Nc1cccc(-c2n[nH]c3ncccc23)n1 [Compound 17]	> 700	> 700
CCN1CCC(Oc2ccc(C(F)(F)F)c(-c3n[nH]c4ncccc34)n2)C1 (stereo not shown) [Compound 56]	> 700	> 700
FC(F)(F)c1ccc(NC2CCCNC2)nc1-c1n[nH]c2ncccc12 (stereo not shown) [Compound 26]	> 700	> 700
N#CCCOc1ccc(C(F)(F)F)c(-c2n[nH]c3ncccc23)n1 [Compound 45]	> 700	> 700
FC(F)(F)c1ccc(Nc2ccc3nc[nH]c3c2)nc1-c1n[nH]c2ncccc12 [Compound 49]	> 700	> 700
c1cc(NC2CCNC2)nc(-c2n[nH]c3ncccc23)c1 (stereo not shown) [Compound 6]	< 500	< 500
NCC1CCCC(CNc2ccc(C(F)(F)F)c(-c3n[nH]c4ncccc34)n2)C1 (stereo not shown) [Compound 34]	> 700	> 700
